Our source for the IC50 values is ChEMBL document CHEMBL1146559, “Dihydrolindbladiones, three new naphthoquinone pigments from a myxomycete Lindbladia tubulina” (J Nat Prod, 2003).

≈ marks a conversion by molar mass, not a printed value. Some results are limits rather than exact numbers.

Common to all, as to assay type: functional, cell-based
Assay [1] concerns P388. Briefly: Cytotoxicity against vincristine-resistant mouse P388 cells.
For assay [2], the system named is P388. Briefly: Cytotoxicity against vincristine-resistant mouse P388 cells in presence of vincristine.
Assay [3] has as its system P388. Description: Cytotoxicity against vincristine-sensitive mouse P388 cells.

In general, IC50 refers to the concentration that inhibits the measured activity by half. For `CCCC(=O)CCC1=C(O)C(=O)c2cc(OC)c(OC)c(O)c2C1=O`, the concentration for half-maximal inhibition (IC50) in the assay with P388 [1], in the assay with P388 [2] and in the assay on P388 [3] was more than 50 µg/mL in each case.
For `CCCC(=O)CCC1=C(O)C(=O)c2cc(O)c(OC)c(O)c2C1=O`, the IC50 was more than 50 µg/mL in the assay on P388 [1], 13.8 µg/mL in the assay with P388 [2] and more than 50 µg/mL in the assay on P388 [3].
With `CCCC(=O)CCC1=C(O)C(=O)c2cc(O)c(O)c(O)c2C1=O`, the IC50 with P388 [1] was 14 µg/mL (≈ 43.7 µM); with P388 [2] it was 12.6 µg/mL; in the assay on P388 [3], 12.1 µg/mL (≈ 37.8 µM).
